Values joined by “and” are separate entries in the source; they are usually repeats but may differ in a detail not shown here. Identical values can stand only once.
Key:
[1] = Cytotoxicity against human KBV cells assessed as cell survival at 10 uM measured after 72 hrs incubation by MTT assay relative to control; format: functional; settings: read-out: Activity
[2] = Reversal of multi-drug resistance in human KVB cells assessed as increase in PTX-induced cytotoxicity by measuring cell survival at 5 uM measured after 72 hrs incubation in presence of 100 nM paclitaxel by MTT assay relative to control; format: functional, KBV
[3] = Reversal of multi-drug resistance in human KVB cells assessed as increase in PTX-induced cytotoxicity by measuring cell survival at 10 uM measured after 72 hrs incubation in presence of 100 nM paclitaxel by MTT assay relative to control; format: functional, KBV
[4] = Reversal fold, ratio of PTX IC50 to PTX IC50 in presence of test compound for reversal of multi-drug resistance in human KVB cells at 10 uM measured after 72 hrs by MTT assay; format: functional, KBV
[5] = target: ATP-dependent translocase ABCB1 (Homo sapiens, UniProt P08183); test: Substrate activity at Pgp in human KVB cells assessed as intracellular accumulation measured after 4 hrs by LC-MS/MS analysis; format: cell-based; settings: kbv
ATP-dependent translocase ABCB1, sequence (P08183 whole entry): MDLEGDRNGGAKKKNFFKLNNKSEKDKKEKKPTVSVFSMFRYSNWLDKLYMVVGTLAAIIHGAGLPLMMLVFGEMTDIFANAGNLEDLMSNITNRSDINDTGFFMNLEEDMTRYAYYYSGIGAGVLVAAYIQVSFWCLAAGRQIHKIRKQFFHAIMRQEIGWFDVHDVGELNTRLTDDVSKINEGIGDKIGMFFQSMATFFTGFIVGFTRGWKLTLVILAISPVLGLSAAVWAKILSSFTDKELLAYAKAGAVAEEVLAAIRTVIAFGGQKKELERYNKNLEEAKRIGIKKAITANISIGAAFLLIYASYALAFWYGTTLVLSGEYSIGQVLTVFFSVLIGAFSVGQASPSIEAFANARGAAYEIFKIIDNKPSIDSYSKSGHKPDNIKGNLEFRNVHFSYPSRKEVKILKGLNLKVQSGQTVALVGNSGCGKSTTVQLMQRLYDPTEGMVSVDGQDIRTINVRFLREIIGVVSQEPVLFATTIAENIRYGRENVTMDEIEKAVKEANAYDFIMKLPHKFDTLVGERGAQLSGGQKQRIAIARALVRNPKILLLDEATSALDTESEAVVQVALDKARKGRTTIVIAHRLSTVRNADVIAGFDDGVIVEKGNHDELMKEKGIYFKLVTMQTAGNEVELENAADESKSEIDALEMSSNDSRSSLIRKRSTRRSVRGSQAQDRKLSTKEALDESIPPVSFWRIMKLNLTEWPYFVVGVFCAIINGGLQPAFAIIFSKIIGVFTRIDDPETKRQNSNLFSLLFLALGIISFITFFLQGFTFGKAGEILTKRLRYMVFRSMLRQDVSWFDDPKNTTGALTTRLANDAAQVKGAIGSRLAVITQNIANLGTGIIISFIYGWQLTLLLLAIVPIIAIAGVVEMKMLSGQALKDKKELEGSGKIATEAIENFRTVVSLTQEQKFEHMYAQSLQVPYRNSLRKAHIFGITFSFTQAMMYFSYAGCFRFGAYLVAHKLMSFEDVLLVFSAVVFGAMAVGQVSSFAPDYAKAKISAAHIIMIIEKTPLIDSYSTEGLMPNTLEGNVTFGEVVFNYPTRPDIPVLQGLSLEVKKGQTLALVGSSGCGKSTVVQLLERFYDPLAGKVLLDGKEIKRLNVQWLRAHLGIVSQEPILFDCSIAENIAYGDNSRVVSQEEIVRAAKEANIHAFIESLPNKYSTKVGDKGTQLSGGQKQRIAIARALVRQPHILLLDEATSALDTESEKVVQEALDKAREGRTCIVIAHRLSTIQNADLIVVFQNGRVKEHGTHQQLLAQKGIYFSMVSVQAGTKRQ

| Activity [5] | SMILES | viability at 10 µM [1] | Activity [2] | Activity [3] | Ratio [4] | Ratio ([4]; 72 h, 10 µM) |
| --- | --- | --- | --- | --- | --- | --- |
|  | CC(C)(C)OC(=O)N1CC(F)(F)C[C@H]1C(=O)N[C@H]1CC[C@]2(C)[C@H]3C[C@@H](O)[C@@H]4[C@@H]([C@]5(C)CC[C@H](C(C)(C)O)O5)CC[C@@]4(C)[C@]3(C)CC[C@H]2C1(C)C | 100% | 65% | 64% |  |  |
|  | CC(=O)N1CCC[C@H]1C(=O)N[C@H]1CC[C@]2(C)[C@H]3C[C@@H](O)[C@@H]4[C@@H]([C@]5(C)CC[C@H](C(C)(C)O)O5)CC[C@@]4(C)[C@]3(C)CC[C@H]2C1(C)C | 97% | 80% | 63% |  |  |
| Active | CC(C)(C)OC(=O)N1CCC[C@@H]1C(=O)N[C@H]1CC[C@]2(C)[C@H]3C[C@@H](O)[C@@H]4[C@@H]([C@]5(C)CC[C@H](C(C)(C)O)O5)CC[C@@]4(C)[C@]3(C)CC[C@H]2C1(C)C | 88% | 36% | 21% | 157.7 |  |
|  | CC(C)(O)[C@H]1CC[C@@](C)([C@H]2CC[C@]3(C)[C@@H]2[C@H](O)C[C@@H]2[C@@]4(C)CC[C@H](NC(=O)[C@@H]5CCC(=O)O5)C(C)(C)[C@@H]4CC[C@]23C)O1 | 104% | 95% | 94% |  |  |
|  | C[S+](C)[O-] [DIMETHYL SULFOXIDE] | 100% | 100% | 100% |  |  |
|  | CC(C)(C)OC(=O)N1CCCC[C@@H]1C(=O)N[C@H]1CC[C@]2(C)[C@H]3C[C@@H](O)[C@@H]4[C@@H]([C@]5(C)CC[C@H](C(C)(C)O)O5)CC[C@@]4(C)[C@]3(C)CC[C@H]2C1(C)C | 118% | 42% | 27% |  |  |
|  | CC(C)(O)[C@H]1CC[C@@](C)([C@H]2CC[C@]3(C)[C@@H]2[C@H](O)C[C@@H]2[C@@]4(C)CC[C@H](NC(=O)[C@H]5CCCNC5)C(C)(C)[C@@H]4CC[C@]23C)O1 | 94% | 83% | 45% |  |  |
|  | CC(C)(C)OC(=O)N1CC(C(=O)N[C@H]2CC[C@]3(C)[C@H]4C[C@@H](O)[C@@H]5[C@@H]([C@]6(C)CC[C@H](C(C)(C)O)O6)CC[C@@]5(C)[C@]4(C)CC[C@H]3C2(C)C)C1 | 91% | 80% | 54% |  |  |
|  | CC(C)(C)OC(=O)N1CC[C@@H]1C(=O)N[C@H]1CC[C@]2(C)[C@H]3C[C@@H](O)[C@@H]4[C@@H]([C@]5(C)CC[C@H](C(C)(C)O)O5)CC[C@@]4(C)[C@]3(C)CC[C@H]2C1(C)C | 99% | 47% | 27% | 100.1 |  |
|  | CC(C)(O)[C@H]1CC[C@@](C)([C@H]2CC[C@]3(C)[C@@H]2[C@H](O)C[C@@H]2[C@@]4(C)CC[C@H](NC(=O)[C@H]5CCCCN5)C(C)(C)[C@@H]4CC[C@]23C)O1 | 99% | 56% | 28% |  | 89.1 and 106.3 |
|  | CC(C)(O)[C@H]1CC[C@@](C)([C@H]2CC[C@]3(C)[C@@H]2[C@H](O)C[C@@H]2[C@@]4(C)CC[C@H](NC(=O)[C@H]5CCCN5)C(C)(C)[C@@H]4CC[C@]23C)O1 | 109% | 73% | 63% |  |  |
|  | CC(C)(C)OC(=O)N1C[C@H](F)C[C@H]1C(=O)N[C@H]1CC[C@]2(C)[C@H]3C[C@@H](O)[C@@H]4[C@@H]([C@]5(C)CC[C@H](C(C)(C)O)O5)CC[C@@]4(C)[C@]3(C)CC[C@H]2C1(C)C | 114% | 46% | 26% | 102.4 |  |
|  | CC(C)(C)OC(=O)N1CCOC[C@H]1C(=O)N[C@H]1CC[C@]2(C)[C@H]3C[C@@H](O)[C@@H]4[C@@H]([C@]5(C)CC[C@H](C(C)(C)O)O5)CC[C@@]4(C)[C@]3(C)CC[C@H]2C1(C)C | 89% | 81% | 55% |  |  |
|  | CC1(C(=O)N[C@H]2CC[C@]3(C)[C@H]4C[C@@H](O)[C@@H]5[C@@H]([C@]6(C)CC[C@H](C(C)(C)O)O6)CC[C@@]5(C)[C@]4(C)CC[C@H]3C2(C)C)COC1 | 84% | 59% | 50% |  |  |
| Active | CC(C)(C)OC(=O)NCCCCCC(=O)N[C@H]1CC[C@]2(C)[C@H]3C[C@@H](O)[C@@H]4[C@@H]([C@]5(C)CC[C@H](C(C)(C)O)O5)CC[C@@]4(C)[C@]3(C)CC[C@H]2C1(C)C |  |  |  |  |  |
|  | CC(C)(C)OC(=O)N1C[C@H](O)C[C@H]1C(=O)N[C@H]1CC[C@]2(C)[C@H]3C[C@@H](O)[C@@H]4[C@@H]([C@]5(C)CC[C@H](C(C)(C)O)O5)CC[C@@]4(C)[C@]3(C)CC[C@H]2C1(C)C | 105% | 90% | 93% |  |  |
|  | CC(C)(O)[C@H]1CC[C@@](C)([C@H]2CC[C@]3(C)[C@@H]2[C@H](O)C[C@@H]2[C@@]4(C)CC[C@H](NC(=O)[C@H]5C[C@@H](O)CN5)C(C)(C)[C@@H]4CC[C@]23C)O1 | 98% | 95% | 98% |  |  |
|  | CC(C)(O)[C@H]1CC[C@@](C)([C@H]2CC[C@]3(C)[C@@H]2[C@H](O)C[C@@H]2[C@@]4(C)CC[C@H](NC(=O)[C@@H]5COCCN5)C(C)(C)[C@@H]4CC[C@]23C)O1 | 89% | 82% | 57% |  |  |
| Not Active | CC(C)(O)[C@H]1CC[C@@](C)([C@H]2CC[C@]3(C)[C@@H]2[C@H](O)C[C@@H]2[C@@]4(C)CC[C@H](NC(=O)[C@@H]5CCCN5)C(C)(C)[C@@H]4CC[C@]23C)O1 | 100% | 38% | 30% | 65.1 |  |
|  | CC(C)(C)OC(=O)N1CC[C@@H](C(=O)N[C@H]2CC[C@]3(C)[C@H]4C[C@@H](O)[C@@H]5[C@@H]([C@]6(C)CC[C@H](C(C)(C)O)O6)CC[C@@]5(C)[C@]4(C)CC[C@H]3C2(C)C)C1 | 81% | 54% | 31% | 76 |  |
|  | CC(C)(C)OC(=O)N1CCC[C@H](C(=O)N[C@H]2CC[C@]3(C)[C@H]4C[C@@H](O)[C@@H]5[C@@H]([C@]6(C)CC[C@H](C(C)(C)O)O6)CC[C@@]5(C)[C@]4(C)CC[C@H]3C2(C)C)C1 | 93% | 76% | 47% |  |  |
|  | CC(C)(O)[C@H]1CC[C@@](C)([C@H]2CC[C@]3(C)[C@@H]2[C@H](O)C[C@@H]2[C@@]4(C)CC[C@H](NC(=O)CC5CNC5)C(C)(C)[C@@H]4CC[C@]23C)O1 | 96% | 95% | 90% |  |  |
|  | CC(C)(O)[C@H]1CC[C@@](C)([C@H]2CC[C@]3(C)[C@@H]2[C@H](O)C[C@@H]2[C@@]4(C)CC[C@H](NC(=O)[C@@H]5C[C@@H](F)CN5)C(C)(C)[C@@H]4CC[C@]23C)O1 | 99% | 78% | 66% |  |  |
|  | CC(C)(O)[C@H]1CC[C@@](C)([C@H]2CC[C@]3(C)[C@@H]2[C@H](O)C[C@@H]2[C@@]4(C)CC[C@H](NC(=O)[C@@H]5CCNC5)C(C)(C)[C@@H]4CC[C@]23C)O1 | 99% | 67% | 49% |  |  |
|  | CC(C)(C)OC(=O)N1CCCC[C@H]1C(=O)N[C@H]1CC[C@]2(C)[C@H]3C[C@@H](O)[C@@H]4[C@@H]([C@]5(C)CC[C@H](C(C)(C)O)O5)CC[C@@]4(C)[C@]3(C)CC[C@H]2C1(C)C | 102% | 61% | 26% | 66 |  |
|  | CC(C)(O)[C@H]1CC[C@@](C)([C@H]2CC[C@]3(C)[C@@H]2[C@H](O)C[C@@H]2[C@@]4(C)CC[C@H](NC(=O)[C@@H]5CCC(=O)N5)C(C)(C)[C@@H]4CC[C@]23C)O1 | 100% | 93% | 87% |  |  |
|  | CC(C)(O)[C@H]1CC[C@@](C)([C@H]2CC[C@]3(C)[C@@H]2[C@H](O)C[C@@H]2[C@@]4(C)CC[C@H](NC(=O)[C@H]5CCC(=O)N5)C(C)(C)[C@@H]4CC[C@]23C)O1 | 92% | 93% | 87% |  |  |
|  | CC(C)(O)[C@H]1CC[C@@](C)([C@H]2CC[C@]3(C)[C@@H]2[C@H](O)C[C@@H]2[C@@]4(C)CC[C@H](NC(=O)[C@H]5CCN5)C(C)(C)[C@@H]4CC[C@]23C)O1 | 70% | 86% | 68% |  |  |
|  | CC(C)(O)[C@H]1CC[C@@](C)([C@H]2CC[C@]3(C)[C@@H]2[C@H](O)C[C@@H]2[C@@]4(C)CC[C@H](NC(=O)C5CNC5)C(C)(C)[C@@H]4CC[C@]23C)O1 | 97% | 76% | 61% |  |  |
|  | CC(C)(O)[C@H]1CC[C@@](C)([C@H]2CC[C@]3(C)[C@@H]2[C@H](O)C[C@@H]2[C@@]4(C)CC[C@H](NC(=O)[C@@H]5CC(F)(F)CN5)C(C)(C)[C@@H]4CC[C@]23C)O1 | 95% | 78% | 62% |  |  |

| SMILES | Activity [5] | viability at 10 µM [1] | Activity [2] | Activity [3] | Ratio [4] | Ratio ([4]; 72 h, 10 µM) |
| --- | --- | --- | --- | --- | --- | --- |
| CC(C)(O)[C@H]1CC[C@@](C)([C@H]2CC[C@]3(C)[C@@H]2[C@H](O)C[C@@H]2[C@@]4(C)CC[C@H](O)C(C)(C)[C@@H]4CC[C@]23C)O1 | Not Active |  |  |  |  |  |
